Source: patent US10646477B1, “5-substituted 2,4-thiazolidinediones (thiohydantoins), pseudothiohydantoins, and propseudothiohydantoins for use as antiviral agents” (Jiva Pharma, Inc., priority 2015, dated 2020)
In brackets after ≈: the same amount, converted by molar mass. Like-named read-outs stand apart in the source and are kept apart here. Blank lines part the entries; values can stand above or below the compound they belong to.

How the values were obtained:
HSV-2 [1] = assay: In vitro HSV-2 tests using published formulations of 1-docosanol with surfactants; format: cell-based, Herpes simplex virus type 2; details: published formulations with various surfactants
Text: The alcohol intermediate, cis,cis,cis,cis,cis,cis-4,7,10,13,16,19-docosahexaenoic-1-ol obtained by reduction of DHA in the above series has the same chain-length as 1-docasonol, but has six conjugated-cis-double bonds for a stiff, elongated backbone, in contrast to a floppy backbone in saturated 1-docasanol.

[2] = cited from earlier work
[3] = tested on: cold sores caused by the herpes simplex virus; details: OTC cream; cited from earlier work
healthy cells = format: cell-based
Experimental: (§1) Another advantage was noted of thiazolidinedione compounds in Formula (I) where R is H, and R1 is an omega-3 PUFA derivative derived from DHA, EPA or ALA were provided to the Cincinnati Children's Hospital Medical Center, for in vitro HSV-2 antiviral activity by the viral yield reduction assay method, (YRA). […] For the DHA derived (JIVA-004), a ^˜44% reduction in virus yield was detected at 0.1 mM, and 22% reduction was detected at 0.01 mM. […] The more water soluble sodium salt of JIVA-004, in the YRA method, was toxic at the highest concentrations tested (10 mM to 7.5 mM).

HSV-2 [4] = assay: Viral yield reduction assay (YRA), Cincinnati Children's Hospital Medical Center; format: cell-based, Herpes simplex virus type 2
Experimental: (§2) The yield reduction assay (YRA) was used in determining antiviral activity of test compounds such as JIVA Compounds, controls and standards. The virus yield reduction assay is a powerful technique for evaluating the efficacy of antiviral compounds. Monolayer cultures of mammalian cells were grown in 96-well microliter tissue culture plates and infected with virus. Test compounds were added and serially diluted directly with the plates. Following a cycle of virus replication, culture lysates were made and serially diluted in a separate set of uninfected cultures grown in microliter plates. The cultures were incubated, plaques were enumerated in wells containing […] plaques, and virus titers were calculated.
as §1

[5] = CellTiter-Glo toxicity (CC50), U of Alabama / NIH
HSV-1 McKrae = assay: McKrae viral yield reduction assay relative to mock treated controls, LSU; format: cell-based, Herpes simplex virus type 1
Text: (§3) General Outline of in vitro biology Study: The overall goal of this study was to perform a preliminary evaluation of gross toxicity as well as antiviral effectiveness against HSV-1 and HSV-2, and VZV virus of several pharmaceutical preparations. The HSV-1 and HSV-2 antiviral activity in an in vitro infection system was studied, at the Louisiana State University, Health Sciences System, in New Orleans, and all three above at the University of Alabama, NIAID sponsored laboratories.
as §2

Vero cell monolayers = assay: Gross visible toxicity (CC50), 48 hour continuous treatment, LSU; format: cell-based; details: tested at L (LSU-HSC)
Text: as §3

VZV = assay: CellTiter-Glo (Cytopathic effect/Toxicity) antiviral assay, U of Alabama / NIH; format: cell-based, Varicella zoster virus; details: for activity against the Varicella-Zoster virus: primary assays at the NIH
Text: as §3

HSV-2 [6] = assay: as above; format: cell-based, Herpes simplex virus type 2
Text: as §3

HSV-1 = assay: as above; format: cell-based, Herpes simplex virus type 1
Text: as §3

HSV-2 [7] = assay: Viral yield reduction assay relative to mock treated controls, LSU; format: cell-based, Herpes simplex virus type 2
Text: as §3, §2

HSV-2 [8] = assay: Plaque reduction and virus yield reduction assay (FIGS. 1-6); format: cell-based, Herpes simplex virus type 2; set-up: Mean virus titer: unit not given here
Experimental: as §2
(§4) The concentrations were done in duplicate ranging from 1 mM to 10 mM and the average value is plotted for each concentration. At 2 days post infection the number of plaques were counted. The next day, the wells were collected (media and cells) and titered in a plaque assay.

cells = assay: Toxicity to the cells seen in the plaque reduction assay (FIG. 1); format: cell-based
Experimental: as §4
FIG. 1: Both Compound 2 (JIVA-0042) and Compound 3 (JIVA-005) appeared to show toxicity at 10 mM, so even if the graphs show almost 100% reduction at this concentration, it is due to toxicity, perhaps cytostatic inhibition of the cells and thus very few or small plaques were observed. However, by 5 mM of Compound 2 (JIVA-0042), the cells look good (no toxicity) and >95% plaque reduction for Compound 2 and a 50% reduction for Compound 3 (JIVA-005), with the plaques still smaller than the control no drug plaques.

[9] = Gross visible toxicity (CC50), 48 hour continuous treatment, LSU; format: cell-based; details: African green monkey, Vero cell monolayers, tested at L (LSU-HSC)
Text: as §3

Aqueous solubility = format: physicochemical; details: water; at 3° C.
[10] = VZV line, tested at A (U of Alabama)
[11] = HSV-1, tested at L (LSU-HSC), read-out: EC50
[12] = VZV, tested at A (U of Alabama), read-out: EC50
[13] = HSV-2, tested at L (LSU-HSC), read-out: EC50
[14] = 10 mM, said to be due to toxicity
[15] = CC50, HSV-1 line, tested at A (U of Alabama)
[16] = CC50, HSV-2 line, tested at A (U of Alabama)
[17] = CC50, VZV line, tested at A (U of Alabama)
[18] = Human alphaherpesvirus 1, HSV-1, tested at L (LSU-HSC), read-out: EC50
[19] = Human alphaherpesvirus 2, HSV-2, tested at A (U of Alabama), read-out: EC50
[20] = Human alphaherpesvirus 1, HSV-1, tested at A (U of Alabama), read-out: EC50
[21] = Human alphaherpesvirus 2, HSV-2, tested at L (LSU-HSC), read-out: EC50

Compound: CCCCCCCCCCCCCCCCCCCCCCO [1-docosanol, 1-Docosanol]
antiviral activity (HSV-2 [1]): ineffective
aqueous solubility [2]: near zero
mean time of healing [3]: 4.1 days

Compound: CC/C=C\C/C=C\C/C=C\C/C=C\C/C=C\C/C=C\CCCO [DHA derived primary alcohol, cis,cis,cis,cis,cis,cis-4,7,10,13,16,19-docosahexaenoic-1-ol]
antiviral activity (HSV-2 [1]): ineffective

Compound: CC/C=C\C/C=C\C/C=C\C/C=C\C/C=C\C/C=C\CCCC1SC(=O)NC1=O (centres unmarked) [JIVA-004, RS-5-((4Z,7Z,10Z,13Z,16Z,19Z)docosa-4,7,10,13,16,19-hexaen-1-yl)thiazolidine-2,4-dione]
conservative estimated toxicity index CC50 (healthy cells): 300 µM
reduction in virus yield (HSV-2 [4]; 0.01 mM): 22%
reduction in virus yield (HSV-2 [4]; 0.1 mM): ~44%

Compound: CN(C)C(=N)NC(=N)N.O=C1CSC(=O)N1 [JIVA-005]
CC50 ([5]; HSV-1 line, tested at A (U of Alabama)): > 150 µM
CC50 ([5]; HSV-2 line, tested at A (U of Alabama)): > 150 µM
CC50 [5, 10]: > 150 µM
EC50 (HSV-1 McKrae; [11]): ~625 µM
CC50 (Vero cell monolayers; HSV-2 line): > 10000 µM
EC50 (VZV; [12]): 0.09 µM
activity against the Varicella-Zoster virus (VZV): highly active
EC50 (HSV-2 [6]; HSV-2, tested at A (U of Alabama), read-out: EC50): > 150 µM
EC50 (HSV-1; HSV-1, tested at A (U of Alabama), read-out: EC50): > 150 µM
EC50 (HSV-2 [7]; [13]): ~700 µM
Mean virus titer (HSV-2 [8]; 1 mM): 6.24
Mean virus titer (HSV-2 [8]; 2.5 mM): 5.90
reduction in virus yield (HSV-2 [8]; 2.5 mM): very little reduction
Mean virus titer (HSV-2 [8]; 5 mM): 4.92
plaque reduction (HSV-2 [8]; 5 mM): 50%
Mean virus titer (HSV-2 [8]; 7.5 mM): 3.86
Mean virus titer (HSV-2 [8]; 10 mM): 2.87
plaque reduction (HSV-2 [8]; [14]): ~100%
EC50 (HSV-2 [8]; Excel, best fit line (FIGS. 4 and 5), read-out: estimated EC50): ~4000 µM
EC50 (HSV-2 [8]; Prism program (FIG. 6), read-out: calculated EC50): 5040 µM
toxicity (cells; 10 mM): toxicity

Compound: O=C1CSC(=O)N1 [JIVA-0042, 2,4-Thiazolidinedione]
CC50 [5, 15]: > 150 µM
CC50 [5, 16]: > 150 µM
CC50 [5, 17]: 80 µM
EC50 (HSV-1 McKrae; Human alphaherpesvirus 1): ~625 µM
CC50 at 48 h ([9]; HSV-1 line): > 14000 µM
CC50 at 48 h ([9]; HSV-2 line): > 14000 µM
EC50 (VZV; Human alphaherpesvirus 3): > 30 µM
EC50 (HSV-2 [6]; Human alphaherpesvirus 2): > 150 µM
solubility (Aqueous solubility): 30 mg/mL (≈ 256 mM)
EC50 (HSV-1; Human alphaherpesvirus 1): > 150 µM
EC50 (HSV-2 [7]; Human alphaherpesvirus 2): 1880 µM
antiviral effect (HSV-2 [8]; 1 mM): no antiviral effect
reduction in virus yield (HSV-2 [8]; 2.5 mM): 30%
plaque reduction (HSV-2 [8]; 5 mM): > 95%
plaque reduction (HSV-2 [8]; [14]): ~100%
EC50 (HSV-2 [8]; Human alphaherpesvirus 2, read-out: calculated EC50): 2930 µM
inhibition at 5000 µM (HSV-2 [8]; Human alphaherpesvirus 2, read-out: inhibition that can be contributed to Compound 2 activity): ~45%
toxicity (cells; 5 mM): no toxicity
toxicity (cells; 10 mM): toxicity

melting point: 178 °C
Compound: N=C(N)SC(F)C(=O)O (centres unmarked) [JIVA-0043, RS-(Carbamimidoylsulfanyl)(fluoro)acetic acid]
CC50 [5, 15]: > 150 µM
CC50 [5, 16]: > 150 µM
CC50 [5, 17]: > 150 µM
EC50 (HSV-1 McKrae; [18]): > 150 µM
CC50 at 48 h ([9]; HSV-1 line): ~1000 µM
CC50 at 48 h ([9]; HSV-2 line): > 1000 µM
EC50 (VZV; Human alphaherpesvirus 3, VZV, tested at A (U of Alabama), read-out: EC50): < 0.05 µM
activity against the Varicella-Zoster virus (VZV): highly active
EC50 (HSV-2 [6]; [19]): > 150 µM
EC50 (HSV-1; [20]): > 150 µM
EC50 (HSV-2 [7]; [21]): > 150 µM

melting point: 224 to 228 °C (dec.)
Compound: CC1SC(=N)NC1=O (centres unmarked) [JIVA-0044, RS-2-Imino-5-methylthiazolidine-4-one]
CC50 [5, 15]: > 150 µM
CC50 [5, 16]: > 150 µM
EC50 (HSV-1 McKrae; [18]): 1420 µM
CC50 at 48 h ([9]; HSV-1 line): > 39000 µM
CC50 at 48 h ([9]; HSV-2 line): > 39000 µM
EC50 (HSV-2 [6]; [19]): > 150 µM
EC50 (HSV-1; [20]): > 150 µM
EC50 (HSV-2 [7]; [21]): 1400 µM

melting point: 230 °C (dec.)
Compound: N=C(N)SC(C(=O)O)c1ccccc1 (centres unmarked) [JIVA-0045, RS-2-[Amino(imino)methylsulfenyl]-2-phenylacetic acid]
CC50 [5, 15]: > 150 µM
CC50 [5, 16]: > 150 µM
EC50 (HSV-1 McKrae; [18]): 238 µM
CC50 at 48 h ([9]; HSV-1 line): 3600 µM
CC50 at 48 h ([9]; HSV-2 line): 3600 µM
EC50 (HSV-2 [6]; [19]): > 150 µM
EC50 (HSV-1; [20]): > 150 µM
EC50 (HSV-2 [7]; [21]): ~750 µM

melting point: 244 to 246 °C
Compound: N=C1NC(=O)C(c2ccccc2Cl)S1 (centres unmarked) [JIVA-0046, RS-2-Imino-5-(2′-chlorophenyl) thiazolidine-4-one]
CC50 [5, 15]: > 150 µM
CC50 [5, 16]: > 150 µM
EC50 (HSV-1 McKrae; [18]): 2000 µM
CC50 at 48 h ([9]; HSV-1 line): ~1000 µM
CC50 at 48 h ([9]; HSV-2 line): ~1000 µM
EC50 (HSV-2 [6]; [19]): > 150 µM
EC50 (HSV-1; [20]): > 150 µM
EC50 (HSV-2 [7]; [21]): ~1000 µM

Compound: NC1=NC(=O)CS1 [JIVA-0048, Pseudothiohydantoin]
EC50 (HSV-1 McKrae; [11]): 296 µM
CC50 (Vero cell monolayers; HSV-1 line): 19400 µM
CC50 (Vero cell monolayers; HSV-2 line): 19400 µM
EC50 (HSV-2 [7]; [13]): 76 µM

Compound: CN(C)C(=N)NC(=N)N.N=C1NC(=O)CS1 [JIVA-0049, Pseudothiohydantain Metforminate]
CC50 ([5]; HSV-1 line, tested at N (NIH)): > 300 µM
CC50 [5, 10]: ≥ 150 µM
EC50 (VZV; [12]): < 0.05 µM
activity against the Varicella-Zoster virus (VZV): highly active
EC50 (HSV-1; HSV-1, tested at N (NIH), read-out: EC50): > 300 µM

Compound: CN(C)C(=N)NC(=N)N.Cl [Met.HCl, 1,1-dimethylbiguanide hydrochloride, reference compound]
Mean virus titer (HSV-2 [8]; 1 mM): 5.98
Mean virus titer (HSV-2 [8]; 2.5 mM): 6.05
Mean virus titer (HSV-2 [8]; 5 mM): 5.76
Mean virus titer (HSV-2 [8]; 7.5 mM): 4.97
Mean virus titer (HSV-2 [8]; 10 mM): 4.32
EC50 (HSV-2 [8]; Human alphaherpesvirus 2, read-out: estimated EC50): ~5000 µM
